The values that follow come from patent US5763450A, “Substituted benzyl pyrimidines” (Hoffmann-La Roche Inc., priority 1994, dated 1998).

For experiment [1], the target named is purified DHFR of the reference strain S. aureus ATCC 25923 (Staphylococcus aureus, UniProt P0A017). In words: Inhibition of purified DHFR of reference strain S. aureus ATCC 25923. It counts as biochemical.
The target in experiment [2] is T1, purified DHFR of the opportunistic pathogen P. carinii (Pneumocystis carinii, UniProt P16184).
T1 sequence (P16184 1-206): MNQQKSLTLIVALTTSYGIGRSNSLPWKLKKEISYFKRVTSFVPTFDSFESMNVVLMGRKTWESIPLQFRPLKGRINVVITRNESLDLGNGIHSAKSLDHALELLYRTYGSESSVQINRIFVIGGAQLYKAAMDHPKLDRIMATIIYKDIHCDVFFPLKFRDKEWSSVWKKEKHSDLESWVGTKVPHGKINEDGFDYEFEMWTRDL
The experiment is described as follows: biochemical. The note with it: determined graphically.

Experiment [3] has as its system purified DHFR of the multi-resistant strain S. aureus 157/4696. The experiment is described as follows: Inhibition of purified DHFR of multi-resistant strain S. aureus 157/4696. It is filed as biochemical. The note with it: determined graphically. Here is the method:
The inhibition of the enzyme was taken as a measurement for the antibacterial activity. It is determined using the method of Baccanari and Joyner (Biochemistry 20, 1710 (1981)); see also P. G. Hartman et al., FEB 242, 157-160 (1988).
The IC50 values (concentration at which the enzyme is inhibited to 50%) are determined graphically.
The following Table contains inhibitory concentrations determined in the above test for representative members of the class of compound defined by formula I. The C50 values (μM) are given against the purified DHFR of the reference strain S. aureus ATCC 35923 as well as against the purified DHFR of the multi-resistant strain S. aureus 157/4696. […] The inhibition constants of trimethoprim are also given as a comparison.

Structures can show the parent of a compound that is named as a salt.

Sequence of purified DHFR of the reference strain S. aureus ATCC 25923 (P0A017 whole entry): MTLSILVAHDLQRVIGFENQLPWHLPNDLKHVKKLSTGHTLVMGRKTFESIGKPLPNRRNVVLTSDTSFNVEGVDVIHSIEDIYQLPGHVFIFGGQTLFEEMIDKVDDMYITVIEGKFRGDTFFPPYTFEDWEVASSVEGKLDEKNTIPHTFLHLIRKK

Regarding `COc1cc(Cc2cnc(N)nc2N)cc(-c2ccc3ccccc3c2)c1OC` [Example 4h, 5-(3,4-dimethoxy-5-naphthalen-2-yl-benzyl)pyrimidine-2,4-diamine], the figures for the IC50 in experiment [1], in experiment [2] and in experiment [3] were 2.2 nM, 1600 nM and 1300 nM, respectively.

With `COc1cc(Cc2cnc(N)nc2N)cc(-c2cccc(O)c2)c1OC` [Example 5b, 5-(3'-hydroxy-5,6-dimethoxy-biphenyl-3-ylmethyl)-pyrimidine-2,4-diamine], the IC50 in experiment [1] was found to be 4 nM; in experiment [2], 2300 nM; in experiment [3] it was 2200 nM.

Regarding `COc1cc(Cc2cnc(N)nc2N)cc(-c2ccc(C(=O)O)cc2)c1OC` [Example 5c, 5-(4'-carboxyl-5,6-dimethoxy-biphenyl-3-ylmethyl)-pyrimidine-2,4-diamine hydrochloride], the half-maximal inhibitory concentration (IC50) came to 0.9 nM in experiment [1], 480 nM in experiment [2] and 420 nM in experiment [3].

Consider `COc1cc(Cc2cnc(N)nc2N)cc(-c2ccc3cc(O)ccc3c2)c1OC` [Example 5h, 5-(3,4-dimethoxy-5-naphthalen-6-hydroxy-2-yl-benzyl)-pyrimidine-2,4-diamine], for which the IC50 in experiment [1] was 1.3 nM; in experiment [2], 1000 nM; in experiment [3], 500 nM.

For `COc1cc(Cc2cnc(N)nc2N)cc(-c2cc3c(cc2F)c(=O)c(C(=O)O)cn3C2CC2)c1OC` [Example 9a, 1-cyclopropyl-7-[5-(2,4-diaminopyrimidin-5-ylmethyl)-2,3-dimethoxy-phenyl]-6-fluoro-1,4-dihydro-4-oxo-quinoline-3-carboxylic acid trifluoroacetate], the IC50 amounted to 0.9 nM in experiment [1], 19 nM in experiment [2] and 50 nM in experiment [3].

On to `COc1ccc(Cc2cnc(N)nc2N)cc1-c1cc2c(cc1F)c(=O)c(C(=O)O)cn2C1CC1` [Example 9b, 1-cyclopropyl-7-[5-(2,4-diamino-pyrimidin-5-ylmethyl)-2-methoxy-phenyl]-6-fluoro-1,4-dihydro-4-oxo-quinoline-3-carboxylic acid trifluoroacetate], for which the half-inhibitory concentration (IC50) in experiment [1] stood at 0.2 nM; in experiment [2], 38 nM; in experiment [3], 110 nM.

For `Nc1ncc(Cc2cccc(-c3cc4c(cc3F)c(=O)c(C(=O)O)cn4C3CC3)c2)c(N)n1` [Example 9c, 1-cyclopropyl-7-[5-(2,4-diamino-pyrimidin-5-ylmethyl)-phenyl]-6-fluoro-1,4-dihydro-4-oxo-quinoline-3-carboxylic acid], the IC50 in experiment [1] was 1.9 nM; in experiment [2] it was 200 nM; in experiment [3] it was 210 nM.

In the case of `COc1cc(Cc2cnc(N)nc2N)cc(C=Cc2ccc3ccccc3c2)c1OC` [Example 10b, 5-[3,4-dimethoxy-5-(2-naphthalen-2-yl-vinyl)-benzyl]-pyrimidine-2,4-diamine], the IC50 worked out at 20 nM in experiment [1], 4000 nM in experiment [2] and 750 nM in experiment [3].

For `CCOC(=O)c1cn(CC)c2cc(C#Cc3cc(Cc4cnc(N)nc4N)cc(OC)c3OC)ccc2c1=O` [Example 12g, ethyl 1-ethyl-7-[5-(2,4-diamino-pyrimidin-5-ylmethyl)-2,3-dimethoxy-phenylethynyl]-4-oxo-1,4-dihydro-quinoline-3-carboxylate], the IC50 was found to be 5 nM in experiment [1], 900 nM in experiment [2] and 130 nM in experiment [3].

As to `COc1cc(Cc2cnc(N)nc2N)cc(C#Cc2ccc3ccccc3c2)c1OC` [Example 15a, 5-[3,4-dimethoxy-5-(naphthalen-2-ylethynyl)-benzyl]-pyrimidine-2,4-diamine], the values for the IC50 in experiment [1], in experiment [2] and in experiment [3] were 15 nM, 8000 nM and 700 nM, respectively.

Turning to `COc1cc(Cc2cnc(N)nc2N)cc(C#Cc2ccc3c(=O)c(C(=O)O)cn(C(C)(C)C)c3c2)c1OC` [Example 16ac, 1-tert-butyl-7-[5-(2,4-diamino-pyrimidin-5-ylmethyl)-2,3-dimethoxy-phenylethynyl]-4-oxo-1,4-dihydro-quinoline-3-carboxylate hydrochloride], the IC50 in experiment [1] turned out to be 0.9 nM; in experiment [2] it was 190 nM; in experiment [3], 1.6 nM.

`COc1cc(Cc2cnc(N)nc2N)cc(C#Cc2c(F)cc3c(=O)c(C(=O)O)cn(C4CC4)c3c2F)c1OC` [Example 16c, 1-cyclopropyl-7-[5-(2,4-diamino-pyrimidin-5ylmethyl)-2,3-dimethoxy-phenylethynyl]-6,8-difluoro-1,4-dihydro-4-oxo-quinoline-3-carboxylic acid hydrochloride]: the IC50 is 1.2 nM in experiment [1], 36 nM in experiment [2] and 2.4 nM in experiment [3].

For `COc1cc(Cc2cnc(N)nc2N)cc(C#Cc2cc3c(cc2F)c(=O)c(C(=O)O)cn3C2CC2)c1OC` [Example 16e, 1-cyclopropyl-7-[5-(2,4-diamino-pyrimidin-5-ylmethyl)-2,3-dimethoxy-phenylethynyl]-6-fluoro-4-oxo-1,4-dihydro-quinoline-3-carboxylic acid trifluoroacetate], the values for the IC50 in experiment [1], in experiment [2] and in experiment [3] were 2.9 nM, 3400 nM and 80 nM, respectively.

Consider `CCn1cc(C(=O)O)c(=O)c2cc(F)c(C#Cc3cc(Cc4cnc(N)nc4N)cc(OC)c3OC)cc21` [Example 16f, 1-ethyl-7-[5-(2,4-diamino-pyrimidin-5-ylmethyl)-2,3-dimethoxy-phenylethynyl]-6-fluoro-4-oxo-1,4-dihydro-quinoline-3-carboxylic acid hydrochloride], for which the results for the half-inhibitory concentration (IC50) in experiment [1], in experiment [2] and in experiment [3] were 1.5 nM, 280 nM and 6.5 nM, respectively.

As to `COc1cc(Cc2cnc(N)nc2N)cc(C#Cc2ccc3cc(C(=O)O)ccc3c2)c1OC` [Example 16j, 6-[5-(2,4-diamino-pyrimidin-5-ylmethyl)-2,3-dimethoxy-phenylethynyl]-naphthalene-2-carboxylic acid hydrochloride], the IC50 amounted to 0.9 nM in experiment [1], 5000 nM in experiment [2] and 24 nM in experiment [3].

In the case of `COc1cc(Cc2cnc(N)nc2N)cc(C#Cc2ccc3c(=O)c(C(=O)O)cn(Cc4ccccc4)c3c2)c1OC` [Example 16p, hydrochloride], the values for the IC50 in experiment [1], in experiment [2] and in experiment [3] were 1.2 nM, 140 nM and 1.3 nM, respectively.
